According to publication PMC9873282, “Design, synthesis and evaluation of quinoline-O-carbamate derivatives as multifunctional agents for the treatment of Alzheimer’s disease” (Journal of Enzyme Inhibition and Medicinal Chemistry, 2023):
Values joined by “and” are separate entries in the source; they are usually repeats but may differ in a detail not shown here. Equal entries are not always repeated. Where two headings read alike, the source gives them in different places.

Legend:
IL-1β = IL-1β production in LPS-stimulated BV-2 cells (ELISA); format: cell-based; settings: 1 µg/mL LPS 24 h
Method: (§1) Firstly, the cytotoxicity of compounds 3a, 3c, 3e, 3f, 3k, 3m and 3n were tested using CCK8 assay.
(§2) BV-2 cells (2 × 10^5 cells/well) were seeded in a 24-well cell culture plates. The cells were divided into blank control group, model group (1 µg/mL LPS), LPS + 2 µM compound group, LPS + 1 µM compound group. Each drug group was pre-treated with corresponding concentration of drug solution for 8 h. After 8 h, the culture medium was aspirated out. Except for the blank control group, which was added with DMEM medium, the other groups were stimulated with 1 µg/mL LPS for 24 h. Then cell supernatant was aspirated and centrifuged at 3000 rpm for 3 min. The content of NO in cell culture supernatant was determined by Griess method, and the levels of cytokines IL-6 and IL-1β in cell culture supernatant were determined by IL-6 ELISA kit and IL-1β ELISA kit, respectively.

PC12 cells = test: Cytotoxicity on PC12 cells; format: cell-based; settings: at concentration below 40 µM
Method: (§3) The neuroprotective effect of compounds 3a, 3c, 3e, 3f, 3k, 3m, and 3n on Aβ25–35-induced PC12 cells injury were evaluated using CCK-8 assay. […] Furthermore, as shown in Figure 12(B), when PC12 cells were exposed to 25 µM Aβ25-35, the cell viability sharply declined to 57.3% (p < 0.01) compared with untreated group.
(§4) The PC12 cells during the logarithmic growth phase were digested and centrifuged with pancreatic enzyme solution, the cells were resuspended by adding the prepared media solution, and piped evenly with a pipette to seed in a 96-well cell culture plate (cell concentration adjusted to 2.0 × 10^4 cell·mL^−1). Each well was added 100 µL complete medium was added to each well and incubated at 37 °C and 5% CO2 for 24 h.

eqBuChE = biological target: T1, eqBuChE (Equus caballus, UniProt P81908); test: biochemical; set-up: species or system equine; settings: for inhibition at 25 µM: read-out: eqBuChE inhibition rate; for IC50: BuChE from equine serum; for SI = IC50 (AChE)/IC50 (BuChE): eeAChE/eqBuChE
T1 construct: eqBuChE, from equine serum; purchased Sigma Aldrich; host or cells: equine serum (natural source)
T1 sequence (P81908 whole entry): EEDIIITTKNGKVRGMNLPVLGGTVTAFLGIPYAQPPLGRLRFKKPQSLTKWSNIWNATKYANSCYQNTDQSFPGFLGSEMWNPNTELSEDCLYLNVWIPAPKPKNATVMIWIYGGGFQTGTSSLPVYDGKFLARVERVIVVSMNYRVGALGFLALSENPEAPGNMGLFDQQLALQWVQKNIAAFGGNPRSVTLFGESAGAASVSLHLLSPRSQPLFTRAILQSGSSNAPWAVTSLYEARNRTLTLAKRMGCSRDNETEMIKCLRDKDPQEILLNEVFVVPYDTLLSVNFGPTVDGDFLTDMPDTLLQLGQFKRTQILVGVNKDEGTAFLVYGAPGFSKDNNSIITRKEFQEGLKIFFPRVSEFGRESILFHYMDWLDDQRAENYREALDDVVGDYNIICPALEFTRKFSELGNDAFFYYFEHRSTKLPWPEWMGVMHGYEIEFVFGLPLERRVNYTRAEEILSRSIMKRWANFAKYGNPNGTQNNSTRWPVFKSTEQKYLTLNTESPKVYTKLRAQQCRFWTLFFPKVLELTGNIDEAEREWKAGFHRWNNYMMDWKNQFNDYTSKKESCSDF
Method: (§5) The inhibitory activities of the synthesised compounds against eeAChE (from electric eel) and eqBuChE (from equine serum) were tested by the modified Ellman’s method[26]^,[27]. […] The determination of AChE and BuChE inhibitory potency of the synthesised compounds were evaluated by Ellman assay, the detailed procedure referred to our previous work[26]^,[27].

IL-6 = IL-6 production in LPS-stimulated BV-2 cells (ELISA); format: cell-based; settings: 1 µM and 2 µM; 1 µg/mL LPS 24 h
Method: as §1, §2

BV-2 cells = test: Cytotoxicity on BV-2 cells (CCK8 assay); format: cell-based; settings: compounds at 2 µM
Method: as §1
BV-2 cells were cultured in DMEM containing 10% foetal bovine serum, 100 U/mL penicillin, 100 U/mL streptomycin, and 1% nonessential amino acid at 37 °C with 5% CO2.
BV-2 cells in logarithmic growth stage were digested and centrifuged, and then resuspended in DMEM medium containing 1% penicillin-streptomycin and 10% foetal bovine serum. The cells was adjusted to 1.2 × 10^4 cells/well, and then seeded evenly in 96-well cell culture plates. The cells were incubated for 36 h at 37 °C with 5% CO2. After incubation, the cells were added to different concentrations (10 and 2 µM) of tested compounds, and incubated for 24 h at 37 °C with 5% CO2. Then, 10 µL CCK-8 solution was added to each well, and incubated for another 1 h at 37 °C with 5% CO2. The OD values were tested at […]. The cell viability (%) = {(ODdrug−ODblank)}/{(ODcontrol−ODblank)} × 100%.

eeAChE = biological target: T2, eeAChE (Electrophorus electricus, UniProt O42275); test: biochemical; set-up: species or system electric eel
T2 construct: eeAChE, from the electric eel; purchased Sigma Aldrich; host or cells: electric eel (natural source)
T2 sequence (O42275 24-633): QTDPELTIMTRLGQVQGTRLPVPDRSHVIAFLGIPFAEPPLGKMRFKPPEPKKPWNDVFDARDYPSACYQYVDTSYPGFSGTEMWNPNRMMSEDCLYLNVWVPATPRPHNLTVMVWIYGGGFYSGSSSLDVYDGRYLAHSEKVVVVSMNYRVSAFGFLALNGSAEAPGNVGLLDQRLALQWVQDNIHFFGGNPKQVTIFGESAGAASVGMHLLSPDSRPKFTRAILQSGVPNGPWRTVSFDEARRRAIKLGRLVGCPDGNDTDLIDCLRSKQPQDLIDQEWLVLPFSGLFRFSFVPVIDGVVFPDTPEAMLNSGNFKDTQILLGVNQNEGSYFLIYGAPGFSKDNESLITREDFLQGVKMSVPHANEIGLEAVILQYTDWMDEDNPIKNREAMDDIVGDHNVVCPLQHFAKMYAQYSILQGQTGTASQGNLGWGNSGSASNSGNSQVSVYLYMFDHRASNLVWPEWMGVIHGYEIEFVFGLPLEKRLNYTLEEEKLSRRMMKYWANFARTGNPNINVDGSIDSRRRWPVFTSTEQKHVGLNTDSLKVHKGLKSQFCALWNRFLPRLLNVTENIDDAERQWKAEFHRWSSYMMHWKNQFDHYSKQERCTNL
Method: as §5

NO = NO release in LPS-stimulated BV-2 cells (Griess method); format: cell-based; settings: 1 µg/mL LPS 24 h
Method: as §1, §2

[1] = tested on: Aβ25-35-induced PC12 cells injury; test: Neuroprotective effect on Aβ25-35-induced PC12 cells injury (CCK-8); format: cell-based; settings: 25 µM Aβ25-35; model cell viability 57.3%
Method: as §3
• Preparation of Aβ25-35 aggregation. Aβ25-35 was purchased from sigma. 1 mg Aβ25-35 was dissolved in 943 µL of sterilised deionised water to obtain 1 mM stock solution, aliquoted, –20 °C preservation. Removing the appropriate volume in a 48-well plate and incubated in a 37 °C incubator for two days to allow its ageing to accumulate and produce neurotoxicity. After aggregation was completed, the solution was diluted with PBS to get 25 µM solution of Aβ25-35 aggregation. • Neuroprotective effects of compounds on Aβ25-35-induced PC12 cells injury
as §4
After incubation for 24 h, PC12 cells were divided into blank group, control group, Aβ25-35 model group and tested compounds group (5, 10, 20 µM). Then the original medium was discarded, and 100 µL new complete medium were added to PC12 cells, and the tested compounds group was added to 100 µL complete medium containing different concentrations (5, 10, and 20 µM) of tested compounds, incubated for 2 h at 37 °C, 5% CO2 conditions. After incubation for 2 h, 10 µL Aβ25-35 solution was added to the tested compounds groups and model group (the final concentration of Aβ25-35 was 25 µM), and incubated for 24 h at 37 °C, 5% CO2 conditions, 10 µL CCK-8 was added to each well and further incubated for 1 h at 37 °C and 5% CO2. Finally, the OD value was measured at 450 nm using a microplate reader, and each concentration set three wells. The cell survival rate (%) was determined according to the following formula: cell viability (%) = {(ODdrug−ODblank)}/{(ODcontrol−ODblank)}.

hBuChE = biological target: T3, hBuChE (Homo sapiens, UniProt P06276); test: biochemical; settings: for IC50: from human serum, read-out: IC50 ± SD hBuChE; for SI = IC50 (AChE)/IC50 (BuChE): hAChE/hBuChE
T3 construct: hBuChE, human serum BuChE; purchased Sigma Aldrich; host or cells: human serum (natural source)
T3 sequence (P06276 29-602): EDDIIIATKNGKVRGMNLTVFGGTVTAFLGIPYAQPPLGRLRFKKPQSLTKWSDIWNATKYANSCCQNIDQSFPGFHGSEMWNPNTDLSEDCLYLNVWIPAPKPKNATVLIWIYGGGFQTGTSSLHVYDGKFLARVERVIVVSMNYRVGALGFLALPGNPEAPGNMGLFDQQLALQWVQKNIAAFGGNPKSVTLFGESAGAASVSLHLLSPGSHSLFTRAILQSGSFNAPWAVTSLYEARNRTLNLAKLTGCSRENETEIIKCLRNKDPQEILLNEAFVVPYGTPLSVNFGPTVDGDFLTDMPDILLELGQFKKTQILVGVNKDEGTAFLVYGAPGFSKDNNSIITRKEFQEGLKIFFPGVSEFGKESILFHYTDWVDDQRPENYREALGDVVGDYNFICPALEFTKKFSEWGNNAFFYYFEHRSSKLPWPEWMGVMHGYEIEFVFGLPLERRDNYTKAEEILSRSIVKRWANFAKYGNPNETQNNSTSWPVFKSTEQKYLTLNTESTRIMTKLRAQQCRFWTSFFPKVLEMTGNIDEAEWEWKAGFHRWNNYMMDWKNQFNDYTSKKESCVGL
Method: (§6) Acetylcholinesterase (eeAChE, from the electric eel; hAChE, from human erythrocytes AChE), butyrylcholinesterase (eqBuChE, from equine serum; hBuChE, human serum BuChE), 5,5′-dithiobis-2-nitrobenzoic acid (Ellman’s reagent, DTNB), acetylthiocholine chloride (ATC), and butyrylthiocholine chloride (BTC) were purchased form Sigma Aldrich. The determination of AChE and BuChE inhibitory potency of the synthesised compounds were evaluated by Ellman assay, the detailed procedure referred to our previous work[26]^,[27].

hAChE = biological target: T4, hAChE (Homo sapiens, UniProt P22303); test: biochemical; settings: from human erythrocytes; read-out: IC50 ± SD hAChE
T4 construct: hAChE, from human erythrocytes AChE; purchased Sigma Aldrich; host or cells: human erythrocytes (natural source)
T4 sequence (P22303 32-617 isoform P22303-2 limits assumed): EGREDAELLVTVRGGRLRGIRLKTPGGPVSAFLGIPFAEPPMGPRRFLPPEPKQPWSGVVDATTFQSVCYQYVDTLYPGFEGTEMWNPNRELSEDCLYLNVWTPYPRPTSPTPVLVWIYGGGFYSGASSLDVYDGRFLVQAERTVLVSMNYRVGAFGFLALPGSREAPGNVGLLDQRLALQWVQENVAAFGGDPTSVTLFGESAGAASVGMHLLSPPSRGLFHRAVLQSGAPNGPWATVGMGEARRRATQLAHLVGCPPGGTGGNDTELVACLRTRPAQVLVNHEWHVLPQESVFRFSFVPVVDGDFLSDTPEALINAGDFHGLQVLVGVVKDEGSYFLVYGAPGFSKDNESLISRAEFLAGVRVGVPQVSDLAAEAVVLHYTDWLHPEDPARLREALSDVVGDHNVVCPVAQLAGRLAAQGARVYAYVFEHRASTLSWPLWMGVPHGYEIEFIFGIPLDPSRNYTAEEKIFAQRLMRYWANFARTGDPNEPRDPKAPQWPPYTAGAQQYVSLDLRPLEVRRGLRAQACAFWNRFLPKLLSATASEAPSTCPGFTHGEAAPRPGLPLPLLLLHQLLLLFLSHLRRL
Method: as §6

ACh = ACh level in AlCl3-induced zebrafish AD model tissue; format: in vivo; settings: 8 µM; model 7.3, untreated 13.9 pmol/L
Excerpt: . After the behavioural experiments, the 168hpf zebrafish were killed and ground, the tissue were used to test the AChE activity and ACh levels. […] .

[2] = AChE from electric eel, read-out: IC50 ± SD eeAChE

CN(C)C(=O)Oc1cccc2cccnc12 [Compound 3m, Quinolin-8-yl dimethylcarbamate]
levels of IL-1β compared with model group (IL-1β): did not obviously decrease
cytotoxicity on PC12 cells (PC12 cells): did not show any cytotoxicity
inhibition at 25 µM (eqBuChE): 7.3 ± 0.05%
levels of IL-6 compared with model group (IL-6): significantly decreased
cell viability of BV-2 cells (BV-2 cells): did not show obvious change
IC50 (eeAChE): 6.5 ± 0.05 µM
release volume of NO (NO): significantly decreased
neuroprotective effect on Aβ25-35-induced PC12 cells injury [1]: significant neuroprotective effects at 5 and 10 µM

CCN(CC)C(=O)Oc1ccnc2ccccc12 [Compound 3b, Quinolin-4-yl diethylcarbamate]
IC50 (eqBuChE; read-out: IC50 ± SD eqBuChE): 1.06 µM and 1.1 µM
SI = IC50 (AChE)/IC50 (BuChE) (eqBuChE): 11.5
IC50 (hBuChE): 5.39 µM and 5.4 µM
SI = IC50 (AChE)/IC50 (BuChE) (hBuChE): 5.6
IC50 (hAChE): 30.2 ± 0.61 µM
IC50 (eeAChE; [2]): 12.7 ± 0.13 µM

COc1cc2c(cc1OC)C(=O)C(CC1CCN(Cc3ccccc3)CC1)C2 (stereo not shown) [Donepezil, reference compound]
ACh activity (level) (ACh): 14.0 pmol/L

CCN(CC)C(=O)Oc1cccc2cccnc12 [Compound 3n, Quinolin-8-yl diethylcarbamate]
levels of IL-1β compared with model group (IL-1β): did not obviously decrease
cytotoxicity on PC12 cells (PC12 cells): did not show any cytotoxicity
inhibition at 25 µM (eqBuChE; at 25 μM of compounds): 2.4 ± 0.01%
levels of IL-6 compared with model group (IL-6): significantly decreased
cell viability of BV-2 cells (BV-2 cells): did not show obvious change
IC50 (eeAChE; [2]): 9.7 ± 0.07 µM
release volume of NO (NO): significantly decreased
neuroprotective effect on Aβ25-35-induced PC12 cells injury [1]: significant neuroprotective effects at 5 and 10 µM

O=C(Oc1cccc2ncccc12)N1CCOCC1 [Compound 3h, Quinolin-5-yl morpholine-4-carboxylate]
IC50 (eqBuChE; read-out: IC50 ± SD eqBuChE): 1.76 µM and 1.8 µM
SI = IC50 (AChE)/IC50 (BuChE) (eqBuChE): 7.2
IC50 (eeAChE; [2]): 12.9 ± 0.07 µM

CCN(C)C(=O)Oc1cccc2cccnc12 [Compound 3o, Quinolin-8-yl ethyl(methyl)carbamate]
inhibition at 25 µM (eqBuChE): 4.1 ± 0.02%
IC50 (eeAChE): 8.2 ± 0.06 µM

CCN(C)C(=O)Oc1cccc2ncccc12 [Compound 3g, Quinolin-5-yl ethyl(methyl)carbamate]
IC50 (eqBuChE; IC50 ± SD eqBuChE): 2.23 µM and 2.2 µM
SI = IC50 (AChE)/IC50 (BuChE) (eqBuChE): 1.4
IC50 (eeAChE): 3.2 ± 0.05 µM

O=C(Oc1ccnc2ccccc12)N1CCOCC1 [Compound 3d, Quinolin-4-yl morpholine-4-carboxylate]
IC50 (eqBuChE; read-out: IC50 ± SD eqBuChE): 0.87 ± 0.05 µM
SI = IC50 (AChE)/IC50 (BuChE) (eqBuChE): 18.0
IC50 (hBuChE): 9.46 µM and 9.5 µM
SI = IC50 (AChE)/IC50 (BuChE) (hBuChE): 2.8
IC50 (hAChE): 26.9 ± 0.74 µM
IC50 (eeAChE; [2]): 15.7 ± 0.27 µM
